Data: US11590109B2 (priority 2016, dated 2023)

Experiments:
in vitro [1] = details: African green monkey
H1N1 (influenza virus) [2] = experiment: microbe, parasite or virus in culture; details: Influenza A virus, H1N1, MDCK
[3] = tested on: JEV (Japanese encephalitis virus); experiment: Inhibition of viral replication (CPE) at cellular level, JEV in Vero; details: for SI (TC50/IC50): JEV in host cell Vero; for IC50: Japanese encephalitis virus, Vero
[4] = Determination of TC50 (half toxicity concentration) in RD cells; type: cell-based; details: human, host cell RD, EV71 table
[5] = tested on: Dengue Virus 2 (type 2 dengue virus); experiment: Inhibition of viral replication (CPE) at cellular level, Dengue Virus 2 in Vero; type: cell-based; details: Dengue Virus 2 in host cell Vero; for IC50: CPE
Description: Activity Test for Inhibition of Viral Replication at Cellular Level […]
The present inventors tested inhibitory effects of the compound of the present invention on cytopathic effects (CPE) caused by viral infection on mammalian cells.
Half-inhibitory concentration IC50 and half toxic concentration TC50 of the compound against Dengue Virus 2 (type 2 dengue virus) in host cell Vero (African green monkey kidney cell).

Zika Virus = experiment: Inhibition of viral replication (CPE) at cellular level, Zika Virus in Vero; details: for SI (TC50/IC50): Zika Virus in host cell Vero; for IC50: Zika virus, Vero
H7N9 (influenza virus) [6] = details: H7N9 in host cell MDCK
[7] = tested on: EV71 (hand-foot-and-mouth virus); details: EV71 in host cell RD
H3N2 (influenza virus) [8] = details: H3N2 in host cell MDCK
H7N9 (influenza virus) [9] = experiment: microbe, parasite or virus in culture; details: Influenza A virus, H7N9, MDCK
[10] = tested on: EV71 (hand-foot-and-mouth virus); experiment: microbe, parasite or virus in culture; details: Enterovirus A
H3N2 (influenza virus) [11] = experiment: microbe, parasite or virus in culture; details: Influenza A virus, H3N2, MDCK
H1N1 (influenza virus) [12] = details: H1N1 in host cell MDCK
[13] = tested on: RSV (human respiratory syncytial virus); experiment: Inhibition of viral replication (CPE) at cellular level, RSV in Vero; details: for IC50: human respiratory syncytial virus, Vero; for SI (TC50/IC50): RSV in host cell Vero
in vitro [14] = details: dog, TC50
[15] = TC50, host cell Vero, Dengue Virus 2 table
[16] = TC50, host cell Vero, RSV table
[17] = TC50, host cell Vero, Zika Virus table

| Compound | CC50 (in vitro [1]) | CC50 (in vitro [1]; [15]) | CC50 (in vitro [1]; [16]) | CC50 (in vitro [1]; [17]) | IC50 (H1N1 (influenza virus) [2]) | SI (TC50/IC50) [3] | IC50 [3] | CC50 [4] | SI (TC50/IC50) [5] | IC50 [5] | SI (TC50/IC50) (Zika Virus) | IC50 (Zika Virus) | SI (TC50/IC50) (H7N9 (influenza virus) [6]) | SI (TC50/IC50) [7] | SI (TC50/IC50) (H3N2 (influenza virus) [8]) | IC50 (H7N9 (influenza virus) [9]) | IC50 [10] | IC50 (H3N2 (influenza virus) [11]) | SI (TC50/IC50) (H1N1 (influenza virus) [12]) | IC50 [13] | further results |
| --- | --- | --- | --- | --- | --- | --- | --- | --- | --- | --- | --- | --- | --- | --- | --- | --- | --- | --- | --- | --- | --- |
| CN(/N=C/c1ccccc1C(=O)O)c1nc(-c2ccccc2Cl)cs1 [Compound 1, (E)-4-(2-chlorophenyl)-2-[1-methyl-2-(2-carboxybenzylidene)hydrazino]thiazole] | 12000 nM | 16000 nM | 31000 nM | 13000 nM | 420 nM | 80 | 150 nM | 1000 nM | 145 | 110 nM | 130 | 100 nM | 11 | 7.1 | 125 | 2320 nM | 140 nM | 120 nM | 83 | 4340 nM | – |
| CCN(/N=C/c1ccccc1C(=O)O)c1nc(-c2ccccc2Cl)cs1 [Compound 2, (E)-4-(2-chlorophenyl)-2-[1-ethyl-2-(2-carboxybenzylidene)hydrazino]thiazole] | 16000 nM | 24000 nM | 29000 nM | 24000 nM | 3690 nM | 45.7 | 350 nM | 1000 nM | 68.6 | 350 nM | 53 | 450 nM | 8 | 4.3 | 15 | 5730 nM | 230 nM | 1500 nM | 8 | 7690 nM | CC50 (in vitro [14]): 23000 nM; SI (TC50/IC50) [13]: 4 |
| CN(/N=C/c1ccc(C(F)(F)F)cc1C(=O)O)c1nc(-c2ccccc2Cl)cs1 [Compound 8, (E)-4-(2-chlorophenyl)-2-[1-methyl-2-(4-trifluoromethyl-2-carboxybenzylidene)hydrazino]thiazole] | 17000 nM | 19000 nM | 31000 nM | 19000 nM | 630 nM | 170 | 100 nM | 1000 nM | 211 | 90 nM | 158 | 120 nM | 66 | 11 | 233 | 590 nM | 90 nM | 210 nM | 49 | 5630 nM | CC50 (in vitro [14]): 49000 nM; SI (TC50/IC50) [13]: 5.5 |
| O=C(O)c1cc(C(F)(F)F)ccc1/C=N/Nc1nc(-c2ccccc2Cl)cs1 [Compound 8-1] | 36000 nM | 65000 nM | 123000 nM | 66000 nM | 890 nM | 156 | 230 nM | 2000 nM | 325 | 200 nM | 264 | 250 nM | 117 | 10.5 | 456 | 860 nM | 190 nM | 250 nM | 138 | 8890 nM | CC50 (in vitro [14]): 114000 nM; SI (TC50/IC50) [13]: 14 |
| Cc1ccc(/C=N/N(C)c2nc(-c3ccccc3Cl)cs2)c(C(=O)O)c1 [Compound 9, (E)-4-(2-chlorophenyl)-2-[1-methyl-2-(4-methyl-2-carboxybenzylidene)hydrazino]thiazole] | 11000 nM | 18000 nM | 35000 nM | 15000 nM | 270 nM | 73.3 | 150 nM | 1000 nM | 106 | 170 nM | 100 | 150 nM | 83 | 8.3 | 137 | 530 nM | 120 nM | 190 nM | 240 | 2270 nM | SI (TC50/IC50) [13]: 15 |
